Entries after “also recorded” stand apart in the source; their conditions may differ. Like-named read-outs stand apart in the source and are kept apart here.
Legend:
Assay type in all cases: in vivo, human
healthy subjects = test: HBEA ambulatory blood pressure monitoring (ABPM): blood pressure and pulse rate
Description: (§1) This is a phase 1, SAD, crossover design of LY3154207 in healthy subjects conducted in 2 alternating cohorts with dose escalation. Subjects are dosed at 25 mg, 75 mg, 100 mg, 150 mg and 200 mg or placebo. Safety parameters assessed include adverse events (AEs), safety laboratories, vital signs, ambulatory blood pressure monitoring (ABPM) and electrocardiogram (ECG). Subjects provide blood samples after dosing to measure plasma concentrations of LY3154207 for assessment of PK.
Eighteen subjects enrolled with 17 subjects completing the study. […] One subject withdrew due to anxiety following a 150 mg dose. A total of 111 treatment emergent AEs occurred and were mostly mild (101/111). Insomnia, decreased appetite, anxiety, dizziness, headache, nausea, upper abdominal pain, and dysgeusia were the most common AEs and the majority (69/111) occurred at doses ≥100 mg. A dose-related signal for increases in pulse and blood pressure occurred and resolved in 24 hours. […] The administered LY3154207 dose excreted in urine was 0.02%. […] Data indicating a dose-related signal for increases in pulse and blood pressure also indicate the dosing regimens of the present invention may provide an improved combination of efficacy, safety, and clinical tolerability for use of LY3154207 which can avoid and/or minimize these undesirable effects. […] In HBEA Part A, treatment-related adverse events (AEs) occurred primarily at doses ≥100 mg and were mostly mild. In HBEA Part B, treatment-related AEs occurred only at 75 mg (25% of subjects) and were all mild: energy increased, anxiety, decreased appetite, and dizziness. […] Based on ABPM, the 4- to 8-hour estimates of the difference in least squares means for LY3154207 200 mg vs. placebo were 32 beats per minute (bpm) for pulse rate, and 14 mm Hg and 10 mm Hg for systolic and diastolic blood pressure, respectively.

[1] = HBEA plasma pharmacokinetics after single doses
Description: (§2) HBEA is a single ascending dose study of a D1 receptor positive allosteric modulator LY3154207 in healthy volunteers. Study HBEA aims to determine the safety, tolerability, and peripheral and central pharmacokinetics (PK) of single ascending doses of LY3154207 in healthy subjects. Study HBEB aims to evaluate the effect of single-dose LY3154207 on sleep latency in sleep-deprived healthy male subjects as measured by a multiple sleep latency test (MSLT). HBEA was a Phase 1, 2-part, randomized, double-blind, placebo-controlled study in healthy males or females. Part A has a 3-period crossover design with 2 alternating, single-dose escalating cohorts, and subjects were randomized to LY3154207 (n=6) or placebo (n=3) in each cohort in each dosing period. Part B has a single-period, single-dose, 2-cohort design with cerebrospinal fluid (CSF) sampling, and subjects were randomized to LY3154207 (n=8) or placebo (n=4) in each cohort.
as §1
(§3) HBEA Part B is a study of Cerebrospinal fluid (CSF) and plasma pharmacokinetic (PK) profile following a single dose of LY3154207 in healthy volunteers. The objective of the study is to determine the CSF and plasma PK profile of LY3154207 in a single dose study m healthy volunteers. This study consisted of 2 cohorts in a single-dose, single-period, placebo-controlled, randomized, double-blind, parallel-group study. Subjects were randomized to 25 mg and 75 mg and underwent serial blood and CSF sampling at 2 hours pre-dose and 24 hours post-dose to measure concentrations of LY3154207. Twenty-four subjects enrolled and all completed the study. […] Concentrations of LY3154207 in CSF were detectable up to 8 h after a dose of 25 mg and up to 24 hours after a dose of 75 mg. At each dose about 1% of the total LY3154207 exposure in plasma was available in CSF. At 25 mg and 75 mg, central penetration of LY3154207 was confirmed by measurement of LY3154207 in CSF supporting its use according to the dosing regimens of the present invention in dopaminergic CNS disorders.

[2] = HBEA Part B cerebrospinal fluid (CSF) pharmacokinetics after a single dose
Description: as §2, §3

participants with PD = test: HBEC Part B multiple dose study: TEAEs, vital signs, tolerability
Description: FIG. 3: Design of the study HBEC, a multiple ascending dose study of LY3154207, a randomized, double-blind, placebo-controlled, multiple ascending dose, parallel-group study, of healthy subjects (Part A) and participants with PD (Part B) who received once-daily doses of LY3154207 (15, 30, 75, or 150 mg in Part A and up to 75 mg in Part B) or placebo for 14 days. aEach ascending dose cohort commenced only after review of the safety data to at least Day 7 from the previous cohort. bParticipants with PD in Cohort 6 received titrated doses to determine the effect of this dosing schedule (i.e., Days 1-3:15 mg: Days 4-6:30 mg; and Days 7-14:75 mg) on cardiovascular effects. Note: All cohorts were dosed for 14 days. CRU=clinical research unit: LY=LY3154207; PBO=placebo: PD=Parkinson's disease: R=randomized.
In this randomized, double-blind, placebo-controlled, multiple ascending dose, parallel-group study, HBEC, healthy subjects (Part A) and participants with PD (Part B) received once-daily doses of LY3154207 (15, 30, 75, or 150 mg in Part A and up to 75 mg in Part B) or placebo for 14 days, as illustrated in FIG. 3.
Study outcomes included 24-hour ambulatory blood pressure monitoring (ABPM), treatment-emergent adverse events (TEAEs), and PK assessments in both healthy subjects and participants with PD, as well as Movement Disorder Society-United Parkinson's Disease Rating Scale (MDS-UPDRS) assessments to evaluate the impact of LY3154207 on motor function in participants with PD. The objective was to explore the safety, tolerability, and pharmacokinetics (PK) of multiple oral daily dosing of LY3154207 in healthy subjects (Part A) and in participants with PD (Part B).

[3] = 200 mg, ABPM 4- to 8-hour estimate
[4] = participants with PD receiving LY3154207
[5] = participants with PD, LY 75 mg Titration (Days 1-3: 15 mg; Days 4-6: 30 mg; Days 7-14: 75 mg) (N = 8)
[6] = participants with PD, LY 75 mg once daily for 14 days (N = 9)

In the case of C[C@H]1c2cccc(CCC(C)(C)O)c2C[C@H](CO)N1C(=O)Cc1c(Cl)cccc1Cl [LY3154207], the “diastolic blood pressure, difference in least squares means vs. placebo” value (healthy subjects; [3]) was 10 mm Hg, the “pulse rate, difference in least squares means vs. placebo” value (healthy subjects; [3]) was 32 bpm and the “systolic blood pressure, difference in least squares means vs. placebo” value (healthy subjects; [3]) was 14 mm Hg. For the same molecule, the “time to resolution of increases in blood pressure and pulse rate” value (healthy subjects; ABPM, mostly resolving) was ≤ 24 h, the “effect on blood pressure and pulse rate measured by ABPM” value (healthy subjects; single doses 25-200 mg, diurnal rhythm preserved) was “dose-related increase” and the “apparent clearance (CL/F)” value ([1]; across doses) was 19 to 25 L/h. For the same molecule, the Tmax ([1]; both sexes, human, plasma, single doses, read-out: median tmax) was 2 to 3 h, the half-life ([1]; both sexes, human, plasma, single doses, read-out: terminal half-life (t1/2) (converted)) was ~720 min and the renal elimination ([1]; in vivo) was “negligible renal elimination”. For the same molecule, the “linearity of PK” value ([1]; plasma, 25-200 mg) was “linear PK profile; also recorded: linear plasma PK”, the “dose proportionality of Cmax and AUC” value ([1]; plasma, 25 to 200 mg) was “proportional with dose; also recorded: increased in proportion to LY3154207 dose” and the “administered dose excreted in urine” value ([1]; single doses) was 0.02%. The “central penetration by measurement in CSF” value ([2]; 25 and 75 mg) was “confirmed”, the “time for which concentrations in CSF were detectable” value ([2]; after a dose of 25 mg) was “up to 8 h” and the “time for which concentrations in CSF were detectable” value ([2]; after a dose of 75 mg) was “up to 24 hours”. The Kp ([2]; both sexes, human, CSF, 25 mg and 75 mg, read-out: share of total plasma exposure available in CSF) was ~0.01, the Tmax ([2]; both sexes, human, CSF, read-out: CSF median tmax) was 3 to 4 h and the half-life ([2]; both sexes, human, CSF, read-out: CSF t1/2 (converted)) was 480 min. The Kp ([2]; both sexes, human, CSF, read-out: CSF/unbound plasma ratio) was 0.3, the “severe or serious TEAEs” value (participants with PD; participants with PD) was “no severe or serious TEAEs” and the “headache, treatment-related AE” value (participants with PD; [4]) was 1 n. The “hypoesthesia, treatment-related AE” value (participants with PD; [4]) was 1 n, the “upper abdominal pain, treatment-related AE” value (participants with PD; [4]) was 1 n and the “visual hallucination, treatment-related AE” value (participants with PD; [4]) was 1 n. For the same molecule, the “Number of TEAEs” value (participants with PD; [5]) was 7, the “Number of TEAEs, Mild” value (participants with PD; [5]) was 6 and the “Number of TEAEs, Moderate” value (participants with PD; [5]) was 1. For the same molecule, the “Subjects with ≥1 TEAE, (%)” value (participants with PD; [5]) was “(62.5) %”, the “Number of TEAEs” value (participants with PD; [6]) was 14 and the “Number of TEAEs, Mild” value (participants with PD; [6]) was 13. The “Number of TEAEs, Moderate” value (participants with PD; [6]) was 1, the “Subjects with ≥1 TEAE, (%)” value (participants with PD; [6]) was “(66.7) %” and the “course of the initial increase in SBP, DBP, and pulse rate” value (participants with PD; participants with PD, repeated dosing) was “accommodation effect was less notable”. The “tolerability of multiple once-daily doses” value (participants with PD; up to 75 mg in participants with PD) was “well tolerated”.

Source: patent publication US12642794B2, “Dose regimens for use of LY3154207 in the treatment of dopaminergic CNS disorders” (Eli Lilly and Company, priority 2018, dated 2026)
